Broadly, the EC50 is the midpoint of the concentration-response curve. High values mean lower potency in that assay, low ones higher potency in that assay.

Molecules are shown by their SMILES.

In patent US8778926B2, “Compounds, pharmaceutical compositions and uses thereof” (Boehringer Ingelheim International GmbH, priority 2011, dated 2014) one finds EC50 data, which are given here for 28 molecules.

The test concerns the target T1, human GPR119 (Homo sapiens, UniProt Q8TDV5).
T1 construct: expression vector for human GPR119 cDNA (Acc. No. NP_848566); expressed in transfected cells
T1 sequence (Q8TDV5 1-335): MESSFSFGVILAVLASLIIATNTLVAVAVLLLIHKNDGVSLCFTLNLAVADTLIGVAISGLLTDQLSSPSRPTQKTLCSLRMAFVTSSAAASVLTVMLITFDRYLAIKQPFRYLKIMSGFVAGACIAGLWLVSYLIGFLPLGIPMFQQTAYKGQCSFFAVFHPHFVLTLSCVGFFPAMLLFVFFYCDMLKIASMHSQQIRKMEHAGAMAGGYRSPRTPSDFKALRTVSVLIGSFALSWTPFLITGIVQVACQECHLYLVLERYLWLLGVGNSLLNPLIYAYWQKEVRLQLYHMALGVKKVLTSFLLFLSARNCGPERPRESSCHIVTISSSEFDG
The test is described as follows: AlphaScreen cAMP assay, activation of GPR119 in Min-6/hGPR119 cells. The class given is cell-based. The following applies: MIN6 cells stably transfected with human GPR119; intracellular cAMP; 45 minutes incubation at room temperature. As for the experimental part: The compounds of formula I according to the invention modulate the activity of the G-protein-coupled receptor GPR119. The effect of the compounds on the activation of GPR119 and on the stimulation of intracellular cAMP concentration is determined using the AlphaScreen cAMP Assay Kit (Cat. No. #6760625R) made by PerkinElmer.
MIN6 cells [Miyazaki J et al. Endocrinology. 1990 July; 127(1):126-32] are stably transfected with an expression vector for human GPR119 cDNA (Acc. No. NP_848566). Min-6/hGPR119 cells are cultured in DMEM, 10% FBS, 500 μM β-mercaptoethanol, 0.3 mg/mL Geniticin, 2 mM GlutaMAX at 37° C. 5% CO2. For the assay, the cells are seeded in Optiplates (white, 384-well, 160 W— barcoded, TC, sterile with lid, Cat. No. #6007688 (Perkin Elmer); 10000 cells/well; 50 μl). The plates covered with lids are then incubated for 24 hours at 37° C./5% CO2. After the medium is aspirated from the wells completely, 10 μl of the test compound are added, the compounds are diluted using stimulating buffer (140 mM NaCl, 3.6 mM KCl, 0.5 mM NaH2PO4, 0.5 mM MgSO4, 1.5 mM CaCl2, 10 mM Hepes, 5 mM NaHCO3; pH 7.4. 0.5 mM IBMX and 0.1% BSA, the final DMSO concentration is 1%). After 45 minutes incubation at room temperature (approx. 20° C.), the cAMP concentrations are determined using the AlphaScreen cAMP Assay Kit (Cat. No. #6760625R from PerkinElmer).
Background: In Alpha technology, singlet oxygen from a donor bead excites a nearby acceptor bead.
Take `COc1cnc(N2CCC([C@H]3Cc4cc(C5=CCN(S(C)(=O)=O)CC5)ncc4O3)CC2)nc1` (single isomer, unassigned) [Example 92]: the response was half-maximal at 10 nM (EC50). The same measure for `CS(=O)(=O)c1ccc(-c2cc3c(cn2)O[C@@H](C2CCN(c4ncc(C5CC5)cn4)CC2)C3)cc1` (single isomer, unassigned) [Example 93]: 10 nM; for `COc1cnc(N2CCC([C@H]3Cc4cc(-c5ccc(S(C)(=O)=O)cc5)ncc4O3)CC2)nc1` (single isomer, unassigned) [Example 94]: 18 nM. The same measure for `CCc1cnc(N2CCC(C3Cc4cc(-c5ccc(S(C)(=O)=O)cc5)ccc4O3)CC2)nc1` (stereo not shown) [Example 1, 5-Ethyl-2-{4-[5-(4-methanesulfonyl-phenyl)-2,3-dihydro-benzofuran-2-yl]-piperidin-1-yl}-pyrimidine]: 21 nM; for `CC(C)c1noc(N2CCC(C3Cc4cc(-c5ccc(S(C)(=O)=O)cc5)ccc4O3)CC2)n1` (stereo not shown) [Example 2, 1-(3-Isopropyl-[1,2,4]oxadiazol-5-yl)-4-[5-(4-methanesulfonyl-phenyl)-2,3-dihydro-benzofuran-2-yl]-piperidine]: 27 nM; for `CS(=O)(=O)c1ccc(-c2ccc3c(c2)CC(C2CCN(c4nc(C5CC5)no4)CC2)O3)cc1` (stereo not shown) [Example 3, 1-(3-Cyclopropyl-[1,2,4]oxadiazol-5-yl)-4-[5-(4-methanesulfonyl-phenyl)-2,3-dihydro-benzofuran-2-yl]-piperidine]: 71 nM.

As to `CCCc1noc(N2CCC(C3Cc4cc(-c5ccc(S(C)(=O)=O)cc5)ccc4O3)CC2)n1` (stereo not shown) [Example 4, 4-[5-(4-Methanesulfonyl-phenyl)-2,3-dihydro-benzofuran-2-yl]-1-(3-propyl-[1,2,4]oxadiazol-5-yl)-piperidine], a half-maximal response (EC50) required 52 nM. `CCc1cnc(N2CCC(C3Cc4cc(-c5ccc(S(C)(=O)=O)cc5)ncc4O3)CC2)nc1` (stereo not shown) [Example 5, 2-[1-(5-Ethyl-pyrimidin-2-yl)-piperidin-4-yl]-5-(4-methanesulfonyl-phenyl)-2,3-dihydro-furo[2,3-c]pyridine]: it took 12 nM to reach a half-maximal effect (EC50). This EC50 lies about 4.3-fold lower than the previous one. The same measure for `CC(C)c1noc(N2CCC(C3Cc4cc(-c5ccc(S(C)(=O)=O)cc5)ncc4O3)CC2)n1` (stereo not shown) [Example 6, 2-[1-(3-Isopropyl-[1,2,4]oxadiazol-5-yl)-piperidin-4-yl]-5-(4-methanesulfonyl-phenyl)-2,3-dihydro-furo[2,3-c]pyridine]: 32 nM. The same measure for `CCCc1noc(N2CCC(C3Cc4cc(-c5ccc(S(C)(=O)=O)cc5)ncc4O3)CC2)n1` (stereo not shown) [Example 7, 5-(4-Methanesulfonyl-phenyl)-2-[1-(3-propyl-[1,2,4]oxadiazol-5-yl)-piperidin-4-yl]-2,3-dihydro-furo[2,3-c]pyridine]: 35 nM; for `CC(C)c1nc(N2CCC(C3Cc4cc(-c5ccc(S(C)(=O)=O)cc5)ncc4O3)CC2)no1` (stereo not shown) [Example 8, 2-[1-(5-Isopropyl-[1,2,4]oxadiazol-3-yl)-piperidin-4-yl]-5-(4-methanesulfonyl-phenyl)-2,3-dihydro-furo[2,3-c]pyridine]: 11 nM. The same measure for `CCCc1nc(N2CCC(C3Cc4cc(-c5ccc(S(C)(=O)=O)cc5)ncc4O3)CC2)no1` (stereo not shown) [Example 9, 5-(4-Methanesulfonyl-phenyl)-2-[1-(5-propyl-[1,2,4]oxadiazol-3-yl)-piperidin-4-yl]-2,3-dihydro-furo[2,3-c]pyridine]: 12 nM; for `Cc1cnc(N2CCC(C3Cc4cc(-c5ccc(S(C)(=O)=O)cc5)ncc4O3)CC2)cn1` (stereo not shown) [Example 10, 5-(4-Methanesulfonyl-phenyl)-2-[1-(5-methyl-pyrazin-2-yl)-piperidin-4-yl]-2,3-dihydro-furo[2,3c]pyridine]: 152 nM; for `CCc1cnc(N2CCC(C3Cc4cc(-c5ccc(S(C)(=O)=O)cc5)ncc4O3)CC2)cn1` (stereo not shown) [Example 11, 2-[1-(5-Ethyl-pyrazin-2-yl)-piperidin-4-yl]-5-(4-methanesulfonyl-phenyl)-2,3-dihydro-furo[2,3-c]pyridine]: 59 nM. For the molecule `CCc1cnc(N2CCC(C3Cc4cc(-c5ccc(CS(C)(=O)=O)cc5)ncc4O3)CC2)nc1` (stereo not shown) [Example 12, 2-[1-(5-Ethyl-pyrimidin-2-yl)-piperidin-4-yl]-5-(4-methanesulfonylmethyl-phenyl)-2,3-dihydro-furo[2,3-c]pyridine], the EC50 came to 22 nM.

`CC(C)c1noc(N2CCC(C3Cc4cc(-c5ccc(CS(C)(=O)=O)cc5)ncc4O3)CC2)n1` (stereo not shown) [Example 13, 2-[1-(3-Isopropyl-[1,2,4]oxadiazol-5-yl)-piperidin-4-yl]-5-(4-methanesulfonylmethyl-phenyl)-2,3-dihydro-furo[2,3-c]pyridine] came in with an EC50 of 28 nM. This EC50 and that of the molecule before are within 1.5-fold of each other.

`CS(=O)(=O)c1ccc(-c2cc3c(cn2)OC(C2CCN(c4nc(C(F)(F)F)no4)CC2)C3)cc1` (stereo not shown) [Example 14, 5-(4-Methanesulfonyl-phenyl)-2-[1-(3-trifluoromethyl-[1,2,4]oxadiazol-5-yl)-piperidin-4-yl]-2,3-dihydro-furo[2,3-c]pyridine] showed an EC50 of 29 nM. The same measure for `CCCc1noc(N2CCC(C3Cc4cc(-c5ccc(CS(C)(=O)=O)cc5)ncc4O3)CC2)n1` (stereo not shown) [Example 15, 5-(4-Methanesulfonylmethyl-phenyl)-2-[1-(3-propyl-[1,2,4]oxadiazol-5-yl)-piperidin-4-yl]-2,3-dihydro-furo[2,3-c]pyridine]: 38 nM; for `CC(C)c1nc(N2CCC(C3Cc4cc(-c5ccc(CS(C)(=O)=O)cc5)ncc4O3)CC2)no1` (stereo not shown) [Example 16]: 17 nM.

Consider `CCCc1nc(N2CCC(C3Cc4cc(-c5ccc(CS(C)(=O)=O)cc5)ncc4O3)CC2)no1` (stereo not shown) [Example 17, 5-(4-Methanesulfonylmethyl-phenyl)-2-[1-(5-propyl-[1,2,4]oxadiazol-3-yl)-piperidin-4-yl]-2,3-dihydro-furo[2,3-c]pyridine], for which the EC50 is 21 nM. In turn, `CCc1cnc(N2CCC(C3Cc4cc(C5=CCN(S(C)(=O)=O)CC5)ncc4O3)CC2)nc1` (stereo not shown) [Example 18, 2-[1-(5-Ethyl-pyrimidin-2-yl)-piperidin-4-yl]-5-(1-methanesulfonyl-1,2,3,6-tetrahydro-Pyridin-4-yl)-2,3-dihydro-furo[2,3-c]pyridine] registered an EC50 of 2 nM. With `CCCc1noc(N2CCC(C3Cc4cc(C5=CCN(S(C)(=O)=O)CC5)ncc4O3)CC2)n1` (stereo not shown) [Example 19, 5-(1-Methanesulfonyl-1,2,3,6-tetrahydro-pyridin-4-yl)-2-[1-(3-propyl-[1,2,4]oxadiazol-5-yl)-piperidin-4-yl]-2,3-dihydro-furo[2,3-c]pyridine] the figure was 25 nM; with `CC(C)c1noc(N2CCC(C3Cc4cc(C5=CCN(S(C)(=O)=O)CC5)ncc4O3)CC2)n1` (stereo not shown) [Example 20, 2-[1-(3-Isopropyl-[1,2,4]oxadiazol-5-yl)-piperidin-4-yl]-5-(1-methanesulfonyl-1,2,3,6-tetrahydro-pyridin-4-yl)-2,3-dihydro-furo[2,3-c]pyridine], 16 nM; with `CC(C)c1noc(N2CCC(C3Cc4cc(-c5ccc(CS(C)(=O)=O)cc5F)ncc4O3)CC2)n1` (stereo not shown) [Example 21, 5-(2-Fluoro-4-methanesulfonylmethyl-phenyl)-2-[1-(3-isopropyl-[1,2,4]oxadiazol-5-yl)-piperidin-4-yl]-2,3-dihydro-furo[2,3-c]pyridine], 28 nM.

The molecule `CC(C)c1nc(N2CCC(C3Cc4cc(C5=CCN(S(C)(=O)=O)CC5)ncc4O3)CC2)no1` (stereo not shown) [Example 22] displayed an EC50 of 6 nM. Take `CCCc1nc(N2CCC(C3Cc4cc(C5=CCN(S(C)(=O)=O)CC5)ncc4O3)CC2)no1` (stereo not shown) [Example 23, 5-(1-Methanesulfonyl-1,2,3,6-tetrahydro-pyridin-4-yl)-2-[1-(5-propyl-[1,2,4]oxadiazol-3-yl)-piperidin-4-yl]-2,3-dihydro-furo[2,3-c]pyridine]: a half-maximal effect (EC50) was put at 7 nM. This EC50 and that of the molecule before are within 1.5-fold of each other.

Take `CC(C)c1nc(N2CCC(C3Cc4cc(-c5ccc(CS(C)(=O)=O)cc5F)ncc4O3)CC2)no1` (stereo not shown) [Example 24, 5-(2-Fluoro-4-methanesulfonylmethyl-phenyl)-2-[1-(5-isopropyl-[1,2,4]oxadiazol-3-yl)-piperidin-4-yl]-2,3-dihydro-furo[2,3-c]pyridine]: a half-maximal response (EC50) required 60 nM. Regarding `CCCc1nc(N2CCC(C3Cc4cc(-c5ccc(CS(C)(=O)=O)cc5F)ncc4O3)CC2)no1` (stereo not shown) [Example 25, 5-(2-Fluoro-4-methanesulfonylmethyl-phenyl)-2-[1-(5-propyl-[1,2,4]oxadiazol-3-yl)-piperidin-4-yl]-2,3-dihydro-furo[2,3-c]pyridine], it took 62 nM to reach a half-maximal effect (EC50). This EC50 and that of the molecule before are within 1.5-fold of each other.
